Experimental data reported in ChEMBL document CHEMBL1201862, “PubChem BioAssay data set” (2004).
Active and inactive are the calls of the source.

How the values were obtained:
[1] = target: T1, High affinity choline transporter 1 (Homo sapiens, UniProt Q9GZV3); assay: human choline transporter potentiators, potency – cell-based, 10-point CRC, membrane potential dye, dose response (AID 602376); type: functional
T1 sequence (Q9GZV3 whole entry): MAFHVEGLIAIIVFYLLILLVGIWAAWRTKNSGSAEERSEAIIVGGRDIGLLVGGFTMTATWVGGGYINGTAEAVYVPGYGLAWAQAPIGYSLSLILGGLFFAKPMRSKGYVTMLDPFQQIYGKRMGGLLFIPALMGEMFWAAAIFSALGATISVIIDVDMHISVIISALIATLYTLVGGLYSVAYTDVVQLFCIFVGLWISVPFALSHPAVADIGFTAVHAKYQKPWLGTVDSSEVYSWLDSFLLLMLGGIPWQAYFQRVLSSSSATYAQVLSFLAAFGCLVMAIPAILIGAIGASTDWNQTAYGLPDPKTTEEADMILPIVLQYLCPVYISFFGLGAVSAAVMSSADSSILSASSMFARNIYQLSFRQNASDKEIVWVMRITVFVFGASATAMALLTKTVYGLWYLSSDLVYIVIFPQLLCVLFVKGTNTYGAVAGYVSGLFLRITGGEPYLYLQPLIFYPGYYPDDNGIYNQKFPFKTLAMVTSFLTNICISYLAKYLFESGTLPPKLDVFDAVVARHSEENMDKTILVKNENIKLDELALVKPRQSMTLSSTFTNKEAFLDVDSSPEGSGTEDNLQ

CHO = CHO cell viability loss, potency – luminescence, cytotoxicity control for TLR9-MyD88 binding inhibitor project, dose response (AID 588339); type: functional, cell-based, hamster; details: Cricetulus griseus;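 further: CHO cells stably coexpressing TLR9 and MyD88 fusions from primary screen; compound exposure lasted 48 hours before viability readout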
[2] = target: T2, Replicative DNA helicase DnaB (Mycobacterium tuberculosis, UniProt P9WMR3); assay: DnaB intein splicing inhibitors, dose response, biochemical, cell-free fluorescence (AID 449749); type: functional
T2 sequence (P9WMR3 whole entry): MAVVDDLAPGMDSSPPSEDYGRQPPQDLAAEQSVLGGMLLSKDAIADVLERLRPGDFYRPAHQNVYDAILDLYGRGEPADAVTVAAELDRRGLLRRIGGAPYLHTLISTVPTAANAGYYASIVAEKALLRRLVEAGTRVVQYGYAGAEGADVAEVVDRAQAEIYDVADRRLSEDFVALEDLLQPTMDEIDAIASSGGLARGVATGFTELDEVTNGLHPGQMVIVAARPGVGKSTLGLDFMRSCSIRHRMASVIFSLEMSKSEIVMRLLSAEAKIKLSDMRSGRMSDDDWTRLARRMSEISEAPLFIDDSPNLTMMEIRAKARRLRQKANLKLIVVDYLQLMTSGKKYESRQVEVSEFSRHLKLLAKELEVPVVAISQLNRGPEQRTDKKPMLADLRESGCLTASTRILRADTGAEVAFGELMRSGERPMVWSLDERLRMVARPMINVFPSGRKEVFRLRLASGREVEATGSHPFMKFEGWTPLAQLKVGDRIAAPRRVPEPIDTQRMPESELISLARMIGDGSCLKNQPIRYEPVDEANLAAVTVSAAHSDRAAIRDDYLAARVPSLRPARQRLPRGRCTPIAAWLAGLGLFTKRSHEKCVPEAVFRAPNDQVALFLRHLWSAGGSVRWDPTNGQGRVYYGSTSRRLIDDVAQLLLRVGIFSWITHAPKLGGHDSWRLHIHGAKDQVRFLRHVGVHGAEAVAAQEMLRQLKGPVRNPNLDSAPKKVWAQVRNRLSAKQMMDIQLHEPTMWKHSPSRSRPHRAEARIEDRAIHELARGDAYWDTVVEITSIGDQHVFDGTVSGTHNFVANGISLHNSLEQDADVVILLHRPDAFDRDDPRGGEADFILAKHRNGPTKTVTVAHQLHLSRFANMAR

[3] = target: T1, High affinity choline transporter 1; assay: human choline transporter blockers, potency – cell-based, 5-point CRC, membrane potential dye, dose response (AID 504840); type: functional
Protein RecA = target: T3, Protein RecA (Mycobacterium tuberculosis, UniProt P9WHJ3); assay: Fluorescence Cell-Free Homogeneous Dose Retest to Identify Inhibitors of RecA-Intein Splicing Activity. [Related pubchem assays (depositor defined):AID2097, AID2223, AID489010, AID492950]; type: functional
T3 sequence (P9WHJ3 whole entry): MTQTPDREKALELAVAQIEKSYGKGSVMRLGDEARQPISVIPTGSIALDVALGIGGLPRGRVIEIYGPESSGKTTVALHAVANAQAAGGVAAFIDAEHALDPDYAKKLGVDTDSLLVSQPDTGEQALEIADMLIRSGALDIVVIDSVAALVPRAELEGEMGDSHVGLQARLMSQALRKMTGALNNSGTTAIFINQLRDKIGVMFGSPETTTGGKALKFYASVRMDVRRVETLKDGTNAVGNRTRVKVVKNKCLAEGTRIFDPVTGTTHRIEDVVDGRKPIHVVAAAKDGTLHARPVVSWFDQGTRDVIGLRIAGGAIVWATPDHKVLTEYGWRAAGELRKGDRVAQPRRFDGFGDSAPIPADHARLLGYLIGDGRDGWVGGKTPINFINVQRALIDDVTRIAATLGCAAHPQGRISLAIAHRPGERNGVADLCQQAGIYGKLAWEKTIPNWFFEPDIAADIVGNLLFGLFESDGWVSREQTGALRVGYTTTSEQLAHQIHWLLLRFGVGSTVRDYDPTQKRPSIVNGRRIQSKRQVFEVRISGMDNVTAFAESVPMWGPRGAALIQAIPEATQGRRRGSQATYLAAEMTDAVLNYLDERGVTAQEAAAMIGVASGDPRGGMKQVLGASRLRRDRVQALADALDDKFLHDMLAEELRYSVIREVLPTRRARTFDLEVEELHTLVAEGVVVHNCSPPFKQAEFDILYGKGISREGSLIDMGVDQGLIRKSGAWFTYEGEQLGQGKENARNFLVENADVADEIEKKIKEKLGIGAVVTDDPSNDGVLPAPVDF

Beta Lactamase = Beta Lactamase (Pseudomonas aeruginosa, UniProt Q932Y6); assay: BLA reporter interference, concentration series – BLA reporter cells, FRET fluorescence, artefact control for TLR9-MyD88 binding inhibitor project, dose response (AID 588341); type: cell-based;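 further: cell based assay in CHO-K1 cells stably expressing beta-lactamase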
Sequence of Beta Lactamase (Q932Y6 whole entry): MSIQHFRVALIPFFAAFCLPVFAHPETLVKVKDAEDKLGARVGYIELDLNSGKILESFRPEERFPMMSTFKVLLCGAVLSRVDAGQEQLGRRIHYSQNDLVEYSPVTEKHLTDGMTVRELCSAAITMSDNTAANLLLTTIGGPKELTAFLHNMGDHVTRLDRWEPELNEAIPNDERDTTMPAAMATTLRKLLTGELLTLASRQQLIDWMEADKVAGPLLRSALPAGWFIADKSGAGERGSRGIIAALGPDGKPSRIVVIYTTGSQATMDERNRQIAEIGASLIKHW

[4] = reduction of Shn3 3'UTR-driven luciferase in osteoblasts – cell-based, Clone20 osteoblasts, firefly luciferase, cherry-picked, dose response (AID 624132); type: functional;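 further: firefly luciferase luminescence from reporter carrying the Shn3 3'UTR in osteoblasts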
[5] = loss of viability in HepG2 cells – cell-based, CellTiter-Glo, cherry-picked, cytotoxicity control for Shn3 inhibitor project, dose response (AID 624134); type: functional
[6] = non-specific 3'UTR reporter inhibition in Clone20-Shn3RL – cell-based, Renilla luciferase, cherry-picked, counter-screen for Shn3 inhibitor project, dose response (AID 624133); type: functional
INS1 [7] = assay: suppression of NO production in INS-1E cells – cell-based, Griess absorbance, dry powder, set 2, dose response (AID 488868); type: functional; details: Rattus norvegicus
[8] = NIH-3T3 fibroblast cytotoxicity, dose response, cytotoxicity control, cell-based, fluorescence, Alamar Blue, secondary assay (AID 2327); type: functional;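 further: NIH-3T3 mouse fibroblasts cultured with fluconazole at 8 µg/mL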
[9] = decrease of insulin promoter-GFP reporter – imaging, high-content screening, mouse beta cells (AID 1628); type: functional; details: MIN6
cells [10] = type: functional, cell-based
[11] = MIN6 cell viability loss – mouse insulinoma, cytotoxicity control, dose response (AID 2122); type: functional;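 further: confirmatory high-throughput counterscreen run to flag cytotoxic compounds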
[12] = fluconazole-exposed Candida albicans growth modulators – fluorescence, retest, confirmation (AID 2467); type: functional, cell-based
[13] = Trypanosoma cruzi growth suppression in host cells – NIH3T3 host cells, beta-gal luminescence, confirmation (AID 2044); type: functional, cell-based;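 further: intracellular parasites grown in NIH/3T3 mouse fibroblasts as host cells; luminescent beta-galactosidase reporter signal from transgenic T. cruzi replicating inside host cells; inhibitors lower the luminescence signal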
cells [14] = type: functional, cell-based; remark: listed apart in the source
[15] = target: Serine/threonine-protein phosphatase (Candida dubliniensis (strain CD36 / CBS 7987 / NCPF 3949 / NRRLY-17841) (Yeast), UniProt B9W6M3); assay: blockers of CaCl2-induced CDRE-lacZ signaling – S. cerevisiae, luminescence, secondary, dose response (AID 2388); type: functional, cell-based;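 further: yeast reporter cells carrying a calcineurin-responsive lacZ construct stimulated with calcium chloride; luminescent beta-galactosidase reporter signal in whole cells rather than isolated phosphatase activity; potency for inhibition where a drop in reporter signal means calcineurin blockade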
Sequence of Serine/threonine-protein phosphatase (B9W6M3 whole entry): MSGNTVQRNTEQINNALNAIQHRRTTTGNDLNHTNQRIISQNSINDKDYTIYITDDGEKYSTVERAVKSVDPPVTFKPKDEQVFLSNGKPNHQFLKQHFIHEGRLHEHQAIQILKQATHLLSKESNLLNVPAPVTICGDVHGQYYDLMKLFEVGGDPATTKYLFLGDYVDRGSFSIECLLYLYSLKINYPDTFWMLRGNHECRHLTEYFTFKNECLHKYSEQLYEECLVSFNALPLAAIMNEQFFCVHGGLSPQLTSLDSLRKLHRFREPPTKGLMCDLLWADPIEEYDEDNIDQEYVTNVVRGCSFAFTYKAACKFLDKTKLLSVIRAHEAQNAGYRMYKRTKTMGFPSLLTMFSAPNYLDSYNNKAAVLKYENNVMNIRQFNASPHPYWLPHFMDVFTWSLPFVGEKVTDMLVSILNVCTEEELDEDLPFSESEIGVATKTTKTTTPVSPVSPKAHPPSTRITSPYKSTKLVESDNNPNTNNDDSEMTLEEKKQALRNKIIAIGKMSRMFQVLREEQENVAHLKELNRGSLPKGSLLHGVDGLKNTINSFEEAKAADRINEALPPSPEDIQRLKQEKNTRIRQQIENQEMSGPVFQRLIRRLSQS

[16] = NIH3T3 cell viability loss – ATP luminescence, mouse fibroblasts, counter-screen, dose response (AID 2010); type: functional, cell-based;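 further: cells exposed to compound for about 90 hours before reading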
Exodeoxyribonuclease V = Exodeoxyribonuclease V (Escherichia coli (strain K12), UniProt P04993+P07648+P08394); assay: RecBCD inhibition via phage-restricted bacterial growth – absorbance, V66 E. coli, mutant T4 phage, counter-screen for AddAB inhibitor project, dose response (AID 492957); type: functional, cell-based, Escherichia coli str. K-12 substr. MG1655
Sequence of Exodeoxyribonuclease V (P04993 whole entry): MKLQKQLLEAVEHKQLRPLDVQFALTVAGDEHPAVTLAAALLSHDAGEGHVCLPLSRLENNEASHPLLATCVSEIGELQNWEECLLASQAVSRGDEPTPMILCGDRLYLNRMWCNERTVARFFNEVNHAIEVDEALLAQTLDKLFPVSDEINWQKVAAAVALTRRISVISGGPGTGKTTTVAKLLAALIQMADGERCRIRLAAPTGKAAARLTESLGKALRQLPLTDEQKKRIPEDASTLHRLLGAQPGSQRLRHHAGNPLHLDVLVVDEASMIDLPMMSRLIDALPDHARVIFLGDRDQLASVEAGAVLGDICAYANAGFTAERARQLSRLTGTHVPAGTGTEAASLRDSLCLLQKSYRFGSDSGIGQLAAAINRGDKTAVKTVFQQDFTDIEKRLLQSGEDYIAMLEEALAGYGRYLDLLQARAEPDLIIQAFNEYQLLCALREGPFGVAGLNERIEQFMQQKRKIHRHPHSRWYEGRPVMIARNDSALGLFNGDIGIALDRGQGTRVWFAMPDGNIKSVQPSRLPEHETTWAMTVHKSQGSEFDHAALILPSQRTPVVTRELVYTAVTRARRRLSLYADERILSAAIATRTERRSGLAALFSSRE
Sequence of Exodeoxyribonuclease V (P07648 whole entry): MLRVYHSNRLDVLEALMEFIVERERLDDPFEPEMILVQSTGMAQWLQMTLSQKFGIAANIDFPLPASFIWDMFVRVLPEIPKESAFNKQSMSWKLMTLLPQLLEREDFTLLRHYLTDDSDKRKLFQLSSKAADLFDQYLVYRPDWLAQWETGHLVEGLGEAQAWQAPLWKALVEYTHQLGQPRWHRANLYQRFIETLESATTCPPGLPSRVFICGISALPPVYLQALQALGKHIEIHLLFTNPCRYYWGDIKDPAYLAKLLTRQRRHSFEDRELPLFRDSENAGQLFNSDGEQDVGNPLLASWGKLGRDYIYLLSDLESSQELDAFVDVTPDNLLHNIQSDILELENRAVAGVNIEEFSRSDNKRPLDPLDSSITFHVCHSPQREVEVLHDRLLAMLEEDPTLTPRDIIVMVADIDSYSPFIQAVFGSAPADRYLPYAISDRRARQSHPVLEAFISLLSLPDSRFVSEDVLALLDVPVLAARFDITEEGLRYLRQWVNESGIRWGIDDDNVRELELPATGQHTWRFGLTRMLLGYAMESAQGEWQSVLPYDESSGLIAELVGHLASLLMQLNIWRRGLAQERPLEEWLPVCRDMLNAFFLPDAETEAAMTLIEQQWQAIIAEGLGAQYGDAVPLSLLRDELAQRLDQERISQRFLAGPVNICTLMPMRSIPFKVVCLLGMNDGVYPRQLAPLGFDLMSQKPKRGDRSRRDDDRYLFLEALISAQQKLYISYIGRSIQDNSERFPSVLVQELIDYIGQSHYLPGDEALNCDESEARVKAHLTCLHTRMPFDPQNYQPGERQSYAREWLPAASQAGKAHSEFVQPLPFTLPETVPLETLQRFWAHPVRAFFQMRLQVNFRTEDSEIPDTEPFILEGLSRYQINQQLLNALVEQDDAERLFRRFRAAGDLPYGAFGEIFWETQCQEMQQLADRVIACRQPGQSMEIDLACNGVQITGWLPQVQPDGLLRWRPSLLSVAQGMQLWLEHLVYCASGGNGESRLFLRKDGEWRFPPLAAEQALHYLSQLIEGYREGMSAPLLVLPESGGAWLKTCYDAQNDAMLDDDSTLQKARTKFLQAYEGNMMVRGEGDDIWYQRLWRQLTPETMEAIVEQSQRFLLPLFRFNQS
Sequence of Exodeoxyribonuclease V (P08394 whole entry): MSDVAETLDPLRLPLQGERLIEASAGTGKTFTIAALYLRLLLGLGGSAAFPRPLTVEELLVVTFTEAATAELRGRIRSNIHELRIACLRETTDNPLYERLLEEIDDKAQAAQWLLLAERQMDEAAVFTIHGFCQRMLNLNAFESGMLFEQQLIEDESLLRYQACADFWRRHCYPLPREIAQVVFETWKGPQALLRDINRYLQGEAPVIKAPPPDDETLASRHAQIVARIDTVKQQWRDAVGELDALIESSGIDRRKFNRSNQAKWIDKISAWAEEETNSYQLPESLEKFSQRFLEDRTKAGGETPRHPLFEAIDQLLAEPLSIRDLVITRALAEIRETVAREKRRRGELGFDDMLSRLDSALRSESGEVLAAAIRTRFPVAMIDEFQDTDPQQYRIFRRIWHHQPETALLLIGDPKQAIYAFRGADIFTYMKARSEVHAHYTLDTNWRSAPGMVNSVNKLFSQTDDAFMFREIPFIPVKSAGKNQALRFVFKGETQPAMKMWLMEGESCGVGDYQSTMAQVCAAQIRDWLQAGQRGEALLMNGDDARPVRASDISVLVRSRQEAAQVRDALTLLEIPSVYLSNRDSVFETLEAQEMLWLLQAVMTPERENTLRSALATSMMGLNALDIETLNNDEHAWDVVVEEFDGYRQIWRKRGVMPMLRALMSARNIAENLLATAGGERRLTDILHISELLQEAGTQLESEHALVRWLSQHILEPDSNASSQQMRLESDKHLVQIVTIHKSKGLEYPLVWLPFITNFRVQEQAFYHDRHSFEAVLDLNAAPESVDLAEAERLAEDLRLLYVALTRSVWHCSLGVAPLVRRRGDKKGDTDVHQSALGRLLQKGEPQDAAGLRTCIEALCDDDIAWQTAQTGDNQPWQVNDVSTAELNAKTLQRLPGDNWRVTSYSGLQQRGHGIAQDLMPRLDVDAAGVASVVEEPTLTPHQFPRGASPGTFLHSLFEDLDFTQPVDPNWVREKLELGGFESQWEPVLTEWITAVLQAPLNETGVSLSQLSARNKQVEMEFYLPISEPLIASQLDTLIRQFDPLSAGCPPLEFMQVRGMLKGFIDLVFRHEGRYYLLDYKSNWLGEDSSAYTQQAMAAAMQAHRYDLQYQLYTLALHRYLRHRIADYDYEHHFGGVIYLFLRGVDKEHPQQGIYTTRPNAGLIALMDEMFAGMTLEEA

[17] = HEK-293T viability loss after treatment – luminescence, T-cell screen hits, cytotoxicity control for TCR NF-kB inhibitor project, dose response (AID 489026); type: functional, cell-based;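 further: cells exposed to compound about 14 hours before the viability readout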
[18] = Counterscreen for AddAB inhibitors: absorbance-based bacterial cell-based high throughput dose response assay for inhibitors of bacterial viability. [Related pubchem assays (depositor defined):AID435030, AID449728, AID449731, AID488942, AID488955, AID488956]; type: functional
[19] = target: Heat shock protein HSP 90-alpha (Homo sapiens, UniProt P07900); type: functional, organism-based
Jurkat [20] = assay: SAR Analysis of small molecule inhibitors of T-cell specific antigen receptor-induced NF-kB activation in a Jurkat cell line using a luminescence assay - Set 2. [Related pubchem assays (depositor defined):AID435003, AID435012, AID465]; type: functional, cell-based; details: Homo sapiens
Jurkat [21] = assay: SAR Analysis of small molecule inhibitors of T-cell specific antigen receptor-induced NF-kB activation in a Jurkat cell line using a luminescence assay. [Related pubchem assays (depositor defined):AID435003, AID435012, AID465]; type: functional, cell-based; details: Homo sapiens
HEK293 [22] = assay: SAR Analysis of small molecule inhibitors of T-cell specific antigen receptor-induced NF-kB activation in a HEK-293T cell line using a luminescence assay - Set 2. [Related pubchem assays (depositor defined):AID435003, AID435012, AID489026]; type: functional, cell-based; details: Homo sapiens
INS1 [23] = assay: INS-1E survival protection against cytokine death – cell-based, luminescence, retest, dose response (AID 449756); type: functional; details: Rattus norvegicus;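 further: cell death triggered by IL-1 beta plus TNF-alpha plus IFN-gamma mixture; protective hits raise ATP signal compared with cytokine alone wells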
HEK293 [24] = assay: SAR Analysis of small molecule inhibitors of T-cell specific antigen receptor-induced NF-kB activation in a HEK-293T cell line using a luminescence assay. [Related pubchem assays (depositor defined):AID435003, AID435012, AID489026]; type: functional, cell-based; details: Homo sapiens
[25] = target: ATP-dependent molecular chaperone HSP82 (Candida albicans (strain WO-1) (Yeast), UniProt C4YTQ8); assay: steroid-induced GRE reporter decrease in yeast – S. cerevisiae, luminescence, Hsp90 inhibitor project, dose response (AID 2400); type: functional, cell-based;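 further: beta-galactosidase luminescence from glucocorticoid response element reporter as proxy for Hsp90 function; inhibitor potency where signal loss means Hsp90 inhibition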
Sequence of ATP-dependent molecular chaperone HSP82 (C4YTQ8 whole entry): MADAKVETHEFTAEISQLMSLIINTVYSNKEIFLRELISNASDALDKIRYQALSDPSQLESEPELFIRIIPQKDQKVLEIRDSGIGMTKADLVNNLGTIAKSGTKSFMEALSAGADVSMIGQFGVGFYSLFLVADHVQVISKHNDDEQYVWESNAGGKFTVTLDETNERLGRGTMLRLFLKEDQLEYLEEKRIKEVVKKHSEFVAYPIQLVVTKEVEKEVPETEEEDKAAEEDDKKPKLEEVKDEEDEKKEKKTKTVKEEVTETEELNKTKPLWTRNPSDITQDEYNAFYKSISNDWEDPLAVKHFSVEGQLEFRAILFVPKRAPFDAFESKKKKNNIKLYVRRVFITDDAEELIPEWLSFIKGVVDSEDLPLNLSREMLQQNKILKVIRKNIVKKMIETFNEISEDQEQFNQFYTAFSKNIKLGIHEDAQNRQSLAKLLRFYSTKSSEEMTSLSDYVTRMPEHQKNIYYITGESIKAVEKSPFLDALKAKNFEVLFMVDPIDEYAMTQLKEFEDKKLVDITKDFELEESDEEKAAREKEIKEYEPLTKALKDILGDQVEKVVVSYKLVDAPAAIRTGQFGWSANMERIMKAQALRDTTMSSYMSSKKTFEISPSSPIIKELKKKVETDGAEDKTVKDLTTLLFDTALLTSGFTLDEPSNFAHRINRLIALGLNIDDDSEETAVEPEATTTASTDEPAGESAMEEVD

COc1ccc(N2C(=O)/C(=C\c3ccco3)N=C2SCC(=O)N(C(C)C)C(C)C)cc1Cl
EC50 [1]: 17.6 µM (active)

COc1cccc(NC(=O)c2nc(S(C)(=O)=O)ncc2Cl)c1
IC50 (CHO): 5.41 µM (active) | AC50 [2]: 0.111 µM (inconclusive) | IC50 [3]: 14.5 µM (active) | EC50 (Protein RecA): 6.17 µM (active) | IC50 (Beta Lactamase): 8.9 µM (active) | AC50 [4]: 0.834 µM (active) | AC50 [5]: 22 µM (active) | AC50 [6]: 11.5 µM (active)

C[C@@H]1CN([C@@H](C)CO)C(=O)c2cccc(NC(=O)Nc3cccc4ccccc34)c2O[C@H]1CN(C)S(=O)(=O)c1ccccc1
AC50 (INS1 [7]): 36.1 µM (active)

CCCC(=O)NC(c1ccc(OC)cc1)c1ccc2cccnc2c1O (configuration not stated)
EC50 [8]: 41.4 µM (active) | IC50 [9]: 1.23 µM (active) | EC50 (cells [10]): 6.31 µM (active) | IC50 [11]: 1.52 µM (active) | EC50 [12]: 0.349 µM (active) | EC50 [13]: 0.527 µM (active) | EC50 (cells [14]): > 350 µM (not active) | EC50 [15]: > 180 µM (inactive) | EC50 [16]: 1.4 µM (active) | IC50 (Exodeoxyribonuclease V): > 119 µM (inactive) | IC50 [17]: > 80 µM (inactive) | IC50 [18]: > 119 µM (inactive) | AC50 [19]: 4.08 µM (active) | IC50 (Jurkat [20]): 3.11 µM (active) | IC50 (Jurkat [21]): 2.96 µM (active) | IC50 (HEK293 [22]): 3.64 µM (active) | AC50 (INS1 [23]): 0.696 µM (active) | IC50 (HEK293 [24]): 4.92 µM (active) | EC50 [25]: > 160 µM (inactive) | AC50 [4]: 1.18 µM (active) | AC50 [5]: 2.33 µM (active) | AC50 [6]: 1.08 µM (active)
